Legend:
[1] = biological target: T1, human V1a receptor (Homo sapiens, UniProt P37288); experiment: In-vitro binding assay (3H-arginine-8-vasopressin), V1a; conditions: for IC50: membrane containing human V1a receptor, 3H-arginine-8-vasopressin 0.65-0.75 nM; for inhibition at 0.2 µM: test concentration of 0.2 μM, read-out: V1a binding percent inhibition (in parentheses, where an IC50 value was not obtained)
T1 construct: expressed in transfected cells
Procedure: (§1) Assay buffer is 50 mM Tris-Cl, 5 mM MgCl2, 0.1% BSA (pH 7.5) containing 5 μg/mL of aprotinin, leupeptin, pepstatin, 50 μg/mL bacitracin, and 1 mM Pefabloc (4-(2-aminoethyl)-benzenesulfonyl fluoride, hydrochloride manufactured by Roche Diagnostics Corporation, Indianapolis, Ind. and distributed by Boehringer Mannheim). H3 vasopressin is ^3H-arginine-8-vasopressin (NEN Life Sciences, Boston, Mass.; 68.5 Ci/mmol, final concentration in assay is 0.65-0.75 nM). Into the wells of a 96-well round bottom polypropylene plates are added buffer, test compound, membrane (containing human V1a or V2 receptor), and H3 vasopressin. The reaction plates are allowed to sit at room temperature for one hour. The samples are filtered through Unifilter GF/C plates (PerkinElmer Life Sciences, Boston, Mass.) presoaked in 0.3 polyethyleneimine. The plates are washed 5 times with cold physiological saline containing 0.05% Tween 20. After drying, the bottom of the filter plates are sealed and 0.025 mL of Microscint-20 (Packard Instrument Co, Meriden, Conn.) is added to each filter. The top of the plate is sealed, and the plate is counted. Non-specific binding is determined by the addition of 1.25 μM arginine-8-vasopressin in those wells.
(§2) The % inhibition for the test results was calculated according to the formula: […]
Where an IC50 value was not obtained, the percent inhibition values are shown in parentheses (*) and were obtained at a test concentration of 0.2 μM.

[2] = biological target: T2, human V2 receptor (Homo sapiens, UniProt P30518); experiment: In-vitro binding assay (3H-arginine-8-vasopressin), V2; conditions: for IC50: membrane containing human V2 receptor, 3H-arginine-8-vasopressin 0.65-0.75 nM; for inhibition at 0.2 µM: test concentration of 0.2 μM, read-out: V2 binding percent inhibition (in parentheses, where an IC50 value was not obtained)
T2 sequence (P30518 whole entry): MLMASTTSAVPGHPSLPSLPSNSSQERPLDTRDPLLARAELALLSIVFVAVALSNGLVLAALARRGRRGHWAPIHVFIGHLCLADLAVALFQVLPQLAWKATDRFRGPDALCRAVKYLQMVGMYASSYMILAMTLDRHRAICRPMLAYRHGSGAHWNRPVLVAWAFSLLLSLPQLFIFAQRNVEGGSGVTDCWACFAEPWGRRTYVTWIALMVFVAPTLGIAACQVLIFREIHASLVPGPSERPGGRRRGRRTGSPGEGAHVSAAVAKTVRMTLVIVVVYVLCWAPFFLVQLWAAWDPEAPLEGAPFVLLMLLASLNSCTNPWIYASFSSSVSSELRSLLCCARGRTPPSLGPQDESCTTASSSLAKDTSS
Procedure: as §1, with “H3 vasopressin is ^3H-arginine-8-vasopressin (NEN Life Sciences, Boston, Mass.; 68.5 Ci/mmol, final concentration in assay is 0.65-0.75 nM).” left out, “counted.” for “counted. Non-specific binding is determined by the addition of 1.25 μM arginine-8-vasopressin in those wells.”
as §2

[3] = biological target: T1, human V1a receptor; experiment: cell-based
Procedure: The V1a receptor is a G-protein coupled receptor, which upon activation triggers an increase in intracellular calcium mobilization. To evaluate compounds for their functional V1a receptor activity, HEK-293 cells were transfected with the human V1a receptor (V1a-HEK cells). HEK-293 cells were grown in DMEM (Dulbecco's modified Eagle Media) supplemented with 10% FBS and glutamine. HEK-cells were passed biweekly by trypsinization and seeded into 96 well plates at 33,000 cells per well. HEK-293 cells were transfected with human V1a receptor DNA using DMRIE-C reagent from Life Technologies (Carlsbad, Calif.). Stable lines were generated by selecting cells grown in culture media containing geneticin. After growing in Packard Clear-View black 96 well plates for 4-6 days, V1a-HEK cells were loaded with the calcium-sensitive fluorescence dye, FLUO-3 AM. Changes in intracellular calcium mobilization were measured by quantitating intracellular fluorescence using FLIPR (Fluorometric Imaging Plate Reader; Molecular Devices, Sunnyvale, Calif.). Test compounds were first added to the cells and the resulting changes in fluorescence measured to detect receptor agonistic activity. Five minutes later the cells were challenged with vasopressin to test compounds for their antagonistic activity. Receptor antagonists inhibit the ability of vasopressin to stimulate increases in intracellular fluorescence.

[4] = biological target: T2, human V2 receptor; experiment: V2 vasopressin receptor functional activity (cAMP accumulation); format: cell-based; parameters: expressed in transfected cells; host or cells: HEK-293; conditions: V2-HEK cells; block of vasopressin-stimulated cAMP accumulation; read-out: V2 (functional) IC50
Procedure: The V2 receptor is also a G-protein coupled receptor which when activated induces an increase in cAMP turnover. Antagonism against the V2 receptor is determined by measuring cAMP accumulation in transfected HEK-293 cells expressing the human V-2 receptor (V2-HEK cells). Compounds are tested for their ability to block the stimulatory effects of vasopressin on cAMP accumulation. The cell content of cAMP is measured by radioimmunoassay using NEN flashplates.

[5] = V1 (functional) IC50, V1a-HEK cells, inhibition of vasopressin-stimulated intracellular calcium mobilization

T1 sequence (P37288 whole entry): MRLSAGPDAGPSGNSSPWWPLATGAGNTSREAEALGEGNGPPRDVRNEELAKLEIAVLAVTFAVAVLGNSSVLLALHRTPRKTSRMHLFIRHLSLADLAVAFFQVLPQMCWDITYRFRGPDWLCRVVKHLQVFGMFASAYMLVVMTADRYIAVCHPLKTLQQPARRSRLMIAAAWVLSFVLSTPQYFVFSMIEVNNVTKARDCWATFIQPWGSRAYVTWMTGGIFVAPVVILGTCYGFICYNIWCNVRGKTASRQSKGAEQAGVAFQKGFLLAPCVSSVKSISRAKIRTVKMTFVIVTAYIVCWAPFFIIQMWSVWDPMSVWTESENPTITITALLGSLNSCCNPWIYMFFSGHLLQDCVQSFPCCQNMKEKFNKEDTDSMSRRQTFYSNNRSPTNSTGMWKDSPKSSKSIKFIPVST

In the case of `NN=C1CCCC12CCN(C(=O)c1ccc(NC(=O)c3cc(F)ccc3Cl)cc1)c1ccccc1C2` (centres unmarked) [Cpd 1, 2-aminoimino-N-[4-(2-chloro-5-fluoro-phenylcarbonyl)amino-phenylcarbonyl]-spiro[cyclopentane-1,4′-benzo[b]azepane]], the IC50 [1] is reported as 3 nM, the IC50 [2] is reported as 23 nM and the IC50 [3, 5] is reported as 10 nM. For the same compound, the IC50 [4] was 54 nM.

For `CON=C1CCCC12CCN(C(=O)c1ccc(NC(=O)c3cc(F)ccc3Cl)cc1)c1ccccc1C2` (centres unmarked) [Cpd 2, N-[4-(2-chloro-5-fluoro-phenylcarbonyl)amino-phenylcarbonyl]-2-methoxyimino-spiro[cyclopentane-1,4′-benzo[b]azepane]], the IC50 [1] was 7 nM and the IC50 [2] was 44 nM.

With `COc1cc(C(=O)N2CCC3(CCCC3N)Cc3ccccc32)ccc1NC(=O)c1cc(F)ccc1Cl` (centres unmarked) [Cpd 8, 2-amino-N-[3-methoxy-4-(2-chloro-5-fluoro-phenylcarbonyl)amino-phenylcarbonyl]-spiro[cyclopentane-1,4′-benzo[b]azepane]] the IC50 [1] was 16 nM and the IC50 [2] was 83 nM.

`O=C(Nc1ccc(C(=O)N2CCC3(CCCC3=NO)Cc3ccccc32)cn1)c1cc(F)ccc1Cl` (centres unmarked) [Cpd 10, N-[6-(2-chloro-5-fluoro-phenylcarbonyl)amino-pyridin-3-ylcarbonyl]-2-hydroxyimino-spiro[cyclopentane-1,4′-benzo[b]azepane]] was tested, and the IC50 [1] was 60 nM and the IC50 [2] was 70 nM.

`CNC(=O)C=C1CC[C@@]2(CCN(C(=O)c3ccc(NC(=O)c4cc(F)ccc4Cl)c(OC)c3)c3ccccc3C2)C1` [Cpd 30, (R)—N-[3-methoxy-4-(2-chloro-5-fluoro-phenylcarbonyl)amino-phenylcarbonyl]-3-methylaminocarbonylmethylene-spiro[cyclopentane-1,4′-benzo[b]azepane]] gave an IC50 [3, 5] of 210 nM and an IC50 [4] of 90 nM.

`COc1cc(C(=O)N2CC[C@@]3(CCC(=CC(=O)NCCN(C)C)C3)Cc3ccccc32)ccc1NC(=O)c1cc(F)ccc1Cl` [Cpd 31, (R)-N-[3-methoxy-4-(2-chloro-5-fluoro-phenylcarbonyl)amino-phenylcarbonyl]-3-(2-dimethylamino-ethyl)aminocarbonylmethylene-spiro[cyclopentane-1,4′-benzo[b]azepane]] was tested, and the IC50 [3] was 150 nM and the IC50 [4] was 140 nM.

`COc1cc(C(=O)N2CC[C@@]3(CCC(=CC(N)=O)C3)Cc3ccccc32)ccc1NC(=O)c1cc(F)ccc1Cl` [Cpd 32, (R)-3-aminocarbonylmethylene-N-[3-methoxy-4-(2-chloro-5-fluoro-phenylcarbonyl)amino-phenylcarbonyl]-spiro[cyclopentane-1,4′-benzo[b]azepane]] gave an IC50 [3, 5] of 170 nM and an IC50 [4] of 34 nM.

`COc1cc(C(=O)N2CCC3(CCCC3NS(N)(=O)=O)Cc3ccccc32)ccc1NC(=O)c1cc(F)ccc1Cl` (centres unmarked) [Cpd 33, 2-aminosulfonylamino-N-[3-methoxy-4-(2-chloro-5-fluoro-phenylcarbonyl)amino-phenylcarbonyl]-spiro[cyclopentane-1,4′-benzo[b]azepane]] was tested, and the IC50 [3] was 330 nM and the IC50 [4] was 31 nM.

For `COc1cc(C(=O)N2CC[C@@]3(CC[C@H](NS(N)(=O)=O)C3)Cc3ccccc32)ccc1NC(=O)c1cc(F)ccc1Cl` [Cpd 34, (1R,3S)-3-aminosulfonylamino-N-[3-methoxy-4-(2-chloro-5-fluoro-phenylcarbonyl)amino-phenylcarbonyl]-spiro[cyclopentane-1,4′-benzo[b]azepane]], the IC50 [3, 5] was 250 nM and the IC50 [4] was 250 nM.

For `COc1cc(C(=O)N2CC[C@@]3(CC[C@@H](NS(N)(=O)=O)C3)Cc3ccccc32)ccc1NC(=O)c1cc(F)ccc1Cl` [Cpd 35, (1R,3R)-3-aminosulfonylamino-N-[3-methoxy-4-(2-chloro-5-fluoro-phenylcarbonyl)amino-phenylcarbonyl]-spiro[cyclopentane-1,4′-benzo[b]azepane]], the IC50 [3, 5] was 78 nM and the IC50 [4] was 44 nM.

`COc1cc(C(=O)N2CC[C@]3(C=C(C(=O)NS(=O)(=O)N(C)C)CC3)Cc3ccccc32)ccc1NC(=O)c1cc(F)ccc1Cl` [Cpd 36, (R)-N-[3-methoxy-4-(2-chloro-5-fluoro-phenylcarbonyl)amino-phenylcarbonyl]-3-[(dimethylaminosulfonyl)aminocarbonyl]-spiro[cyclopent-2-ene-1,4′-benzo[b]azepane]] gave an IC50 [3] of 210 nM and an IC50 [4] of 170 nM.

In the case of `O=C(c1ccc(N2CCCC2)cc1)N1CCC2(CCCC2=NO)Cc2ccccc21` (centres unmarked) [Cpd 46, N-[4-pyrrolidin-1-yl-phenylcarbonyl]-2-hydroxyimino-spiro[cyclopentane-1,4′-benzo[b]azepane]], the inhibition at 0.2 µM [1] is reported as 73% and the inhibition at 0.2 µM [2] is reported as 40%.

In the case of `Cc1ccn(-c2ccc(C(=O)N3CCC4(CCCC4=NO)Cc4ccccc43)cc2)n1` (centres unmarked) [Cpd 47, N-[4-(3-methyl-1H-pyrazol-1-yl)-phenylcarbonyl]-2-hydroxyimino-spiro[cyclopentane-1,4′-benzo[b]azepane]], the inhibition at 0.2 µM [1] is reported as 86% and the inhibition at 0.2 µM [2] is reported as 62%.

`Cc1ccc(F)cc1C(=O)Nc1ccc(C(=O)N2CCC3(CCCC3=NO)Cc3ccccc32)cc1` (centres unmarked) [Cpd 48, N-[4-(2-methyl-5-fluoro-phenylcarbonyl)amino-phenylcarbonyl]-2-hydroxyimino-spiro[cyclopentane-1,4′-benzo[b]azepane]] was tested, and the IC50 [1] was 16 nM and the IC50 [2] was 26 nM.

With `Cc1ccccc1C(=O)Nc1ccc(C(=O)N2CCC3(CCCC3=NO)Cc3ccccc32)cc1` (centres unmarked) [Cpd 49, N-[4-(2-methyl-phenylcarbonyl)amino-phenylcarbonyl]-2-hydroxyimino-spiro[cyclopentane-1,4′-benzo[b]azepane]] the IC50 [1] was 12 nM and the IC50 [2] was 34 nM.

`COc1cc(C(=O)N2CCC3(CCCC3N)Cc3ccccc32)ccc1NC(=O)c1cccc(F)c1` (centres unmarked) [Cpd 50, 2-amino-N-[3-methoxy-4-(3-fluoro-phenylcarbonyl)amino-phenylcarbonyl]-spiro[cyclopentane-1,4′-benzo[b]azepane]] showed an inhibition at 0.2 µM [1] of 89% and an inhibition at 0.2 µM [2] of 9%.

Compound `COc1cc(C(=O)N2CCC3(CCCC3=NO)Cc3ccccc32)ccc1NC(=O)c1cccc(F)c1` (centres unmarked) [Cpd 51, N-[3-methoxy-4-(3-fluoro-phenylcarbonyl)amino-phenylcarbonyl]-2-hydroxyimino-spiro[cyclopentane-1,4′-benzo[b]azepane]] has an IC50 [1] of 16 nM and an IC50 [2] of 87 nM.

For `NS(=O)(=O)NC(=O)C1=C[C@@]2(CC1)CCN(C(=O)c1ccc(NC(=O)c3cc(F)ccc3Cl)cc1)c1ccccc1C2` [Cpd 52, (R)-3-aminosulfonylaminocarbonyl-N-[4-(2-chloro-5-fluoro-phenylcarbonyl)amino-phenylcarbonyl]-spiro[cyclopent-2-ene-1,4′-benzo[b]azepane]], the IC50 [3] was 77 nM and the IC50 [4] was 35 nM.
